Where two headings read alike, the source gives them in different places.
Columns and labels:
human CB2 receptors = human CB2 receptors (Homo sapiens (Human), UniProt P34972); assay: human CB2 radioligand binding assay ([3H]CP 55,940 competition)
Description: (§1) The CB1 and CB2 radioligand binding assays described herein are utilized to ascertain the affinity of compounds of the present application for binding to CB2 relative to CB1 receptors.
HEK293 cells stably expressing human CB2 receptors were grown until a confluent monolayer was formed. Briefly, the cells were harvested and homogenized in TE buffer (50 mM Tris-HCl, 1 mM MgCl2, and 1 mM EDTA) using a polytron for 2×10 second bursts in the presence of protease inhibitors, followed by centrifugation at 45,000×g for 20 minutes. The final membrane pellet was re-homogenized in storage buffer (50 mM Tris-HCl, 1 mM MgCl2, and 1 mM EDTA and 10% sucrose) and frozen at −78° C. until used. Saturation binding reactions were initiated by the addition of membrane preparation (protein concentration of 5 μg/well for human CB2) into wells of a deep well plate containing [^3H]CP 55,940 (120 Ci/mmol, a nonselective CB agonist commercially available from Tocris) in assay buffer (50 mM Tris, 2.5 mM EDTA, 5 mM MgCl2, and 0.5 mg/mL fatty acid free BSA, pH 7.4). After 90 min incubation at 30° C., binding reaction was terminated by the addition of 300 μL/well of cold assay buffer followed by rapid vacuum filtration through a UniFilter-96 GF/C filter plates (pre-soaked in 1 mg/mL BSA for 2 hours). The bound activity was counted in a TopCount using Microscint-20. Saturation experiments were conducted with twelve concentrations of [^3H]CP 55,940 ranging from 0.01 to 8 nM. Competition experiments were conducted with 0.5 nM [^3H]CP 55,940 and five concentrations (0.01 nM to 10 μM) of displacing ligands. The addition of 10 μM unlabeled CP 55,940 (Tocris, Ellisville, Mo.) was used to assess nonspecific binding.

rat CB2 = rat CB2 (Rattus norvegicus (Rat), UniProt Q9QZN9); assay: rat CB2 radioligand binding assay ([3H]CP 55,940 competition)
Description: as §1
HEK293 cells stably expressing rat CB2 receptors were grown until a confluent monolayer was formed. Briefly, the cells were harvested and homogenized in TE buffer (50 mM Tris-HCl, 1 mM MgCl2, and 1 mM EDTA) using a polytron for 2×10 second bursts in the presence of protease inhibitors, followed by centrifugation at 45,000×g for 20 minutes. The final membrane pellet was re-homogenized in storage buffer (50 mM Tris-HCl, 1 mM MgCl2, and 1 mM EDTA and 10% sucrose) and frozen at −78° C. until used. Saturation binding reactions were initiated by the addition of membrane preparation (protein concentration of 20 μg/well for rat CB2) into wells of a deep well plate containing [^3H]CP 55,940 (120 Ci/mmol, a nonselective CB agonist commercially available from Tocris) in assay buffer (50 mM Tris, 2.5 mM EDTA, 5 mM MgCl2, and 0.5 mg/mL fatty acid free BSA, pH 7.4). After 45 min incubation at 30° C., binding reaction was terminated by the addition of 300 μl/well of cold assay buffer followed by rapid vacuum filtration through a UniFilter-96 GF/C filter plates (pre-soaked in 1 mg/mL BSA for 2 hours). The bound activity was counted in a TopCount using Microscint-20. Saturation experiments were conducted with twelve concentrations of [^3H]CP 55,940 ranging from 0.01 to 8 nM. Competition experiments were conducted with 0.5 nM [^3H]CP 55,940 and five concentrations of displacing ligands selected from the range of 0.01 nM to […] addition of 10 μM unlabeled CP 55,940 (Tocris, Ellisville, Mo.) was used to assess nonspecific binding.

[1] = HEK293 membranes, 0.5 nM [3H]CP 55,940, read-out: human CB2 (Ki)
[2] = HEK293 membranes, 0.5 nM [3H]CP 55,940, read-out: rat CB2 (Ki)

rat CB2, sequence (Q9QZN9 whole entry): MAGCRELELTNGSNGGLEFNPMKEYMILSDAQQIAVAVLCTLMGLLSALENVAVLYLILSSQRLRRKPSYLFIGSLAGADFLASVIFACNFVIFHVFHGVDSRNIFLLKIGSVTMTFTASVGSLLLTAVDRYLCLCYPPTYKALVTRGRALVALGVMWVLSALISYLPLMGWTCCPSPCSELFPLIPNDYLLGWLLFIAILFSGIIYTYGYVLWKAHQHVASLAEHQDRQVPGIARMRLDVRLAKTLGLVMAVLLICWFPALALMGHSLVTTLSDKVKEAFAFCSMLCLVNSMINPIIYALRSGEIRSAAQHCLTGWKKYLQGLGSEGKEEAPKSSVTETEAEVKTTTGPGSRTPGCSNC
human CB2 receptors, sequence (P34972 whole entry): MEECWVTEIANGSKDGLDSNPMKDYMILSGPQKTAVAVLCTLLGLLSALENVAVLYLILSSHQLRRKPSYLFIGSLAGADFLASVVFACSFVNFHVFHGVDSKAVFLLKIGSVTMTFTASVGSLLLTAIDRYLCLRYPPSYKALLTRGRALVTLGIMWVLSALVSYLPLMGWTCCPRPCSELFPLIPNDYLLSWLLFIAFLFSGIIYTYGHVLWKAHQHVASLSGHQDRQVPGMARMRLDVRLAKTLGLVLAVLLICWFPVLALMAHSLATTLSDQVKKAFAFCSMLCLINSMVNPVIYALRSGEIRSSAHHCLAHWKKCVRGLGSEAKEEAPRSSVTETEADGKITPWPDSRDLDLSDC

| SMILES | Ki (human CB2 receptors) | Ki (rat CB2) | Ki (human CB2 receptors; [1]) | Ki (rat CB2; [2]) |
| --- | --- | --- | --- | --- |
| CCCCn1nc(C(C)(C)C)s/c1=N\C(=O)c1cc(C(F)(F)F)ccc1N/N=C\c1cccc(C)n1 [Example 35, N-[(2Z)-3-butyl-5-tert-butyl-1,3,4-thiadiazol-2(3H)-ylidene]-2-{(2Z)-2-[(6-methylpyridin-2-yl)methylene]hydrazino}-5-(trifluoromethyl)benzamide] | 185 nM | 20 nM | – | – |
| CCCCn1nc(C2(C)CC2)s/c1=N\C(=O)c1cc(C(F)(F)F)ccc1ONC(C)(C)C [Example 145, 2-[(tert-butylamino)oxy]-N-[(2Z)-3-butyl-5-(1-methylcyclopropyl)-1,3,4-thiadiazol-2(3H)-ylidene]-5-(trifluoromethyl)benzamide] | – | – | 16 nM | 2.5 nM |
| Cn1c(C(C)(C)C)c/c(=N\C(=O)c2cc(C(F)(F)F)ccc2ONC(C)(C)C)n1CC1CC1 [Example 146, 2-[(tert-butylamino)oxy]-N-[(3E)-5-tert-butyl-2-(cyclopropylmethyl)-1-methyl-1,2-dihydro-3H-pyrazol-3-ylidene]-5-(trifluoromethyl)benzamide] | 54 nM | 14 nM | – | – |
| CC(C)(C)NOc1ccc(C(F)(F)F)cc1C(=O)/N=c1\sc(C(C)(C)C)nn1CC1CCCCO1 (centres unmarked) [Example 147, 2-[(tert-butylamino)oxy]-N-[(2Z)-5-tert-butyl-3-(tetrahydro-2H-pyran-2-ylmethyl)-1,3,4-thiadiazol-2(3H)-ylidene]-5-(trifluoromethyl)benzamide] | – | – | 1.7 nM | 0.7 nM |
| CCCCn1nc(C(C)(C)C)s/c1=N\C(=O)c1cc(C(F)(F)F)ccc1/N=N/C(C)(C)C [Example 148, N-[(2Z)-3-butyl-5-tert-butyl-1,3,4-thiadiazol-2(3H)-ylidene]-2-[(E)-tert-butyldiazenyl]-5-(trifluoromethyl)benzamide] | – | – | 6.2 nM | 15 nM |
| CCCCn1/c(=N/C(=O)c2cc(C(F)(F)F)ccc2ONC(C)(C)C)cc(C(C)(C)C)n1C [Example 149, 2-[(tert-butylamino)oxy]-N-[(3E)-2-butyl-5-tert-butyl-1-methyl-1,2-dihydro-3H-pyrazol-3-ylidene]-5-(trifluoromethyl)benzamide] | 77 nM | 5.5 nM | – | – |
| CCCCn1nc(C(C)(C)C)s/c1=N\C(=O)c1cc(C(F)(F)F)ccc1O/N=C(\C)C(C)(C)C [Example 150, N-[(2Z)-3-butyl-5-tert-butyl-1,3,4-thiadiazol-2(3H)-ylidene]-5-(trifluoromethyl)-2-({[(1E)-1,2,2-trimethylpropylidene]amino}oxy)benzamide] | – | – | 216 nM | 283 nM |
| CC(C)Cn1nc(C(C)(C)C)s/c1=N\C(=O)c1cc(C(F)(F)F)ccc1ONC(C)(C)C [Example 152, 2-[(tert-butylamino)oxy]-N-[(2Z)-5-tert-butyl-3-isobutyl-1,3,4-thiadiazol-2(3H)-ylidene]-5-(trifluoromethyl)benzamide] | – | – | 29 nM | 31 nM |
| Cn1c(C(C)(C)C)c/c(=N\C(=O)c2cc(C(F)(F)F)ccc2ONC(C)(C)C)n1CC1CCC1 [Example 155, 2-[(tert-butylamino)oxy]-N-[(3E)-5-tert-butyl-2-(cyclobutylmethyl)-1-methyl-1,2-dihydro-3H-pyrazol-3-ylidene]-5-(trifluoromethyl)benzamide] | 27 nM | 14 nM | – | – |
| Cn1c(C(C)(C)C)c/c(=N\C(=O)c2cc(C(F)(F)F)ccc2ONC(C)(C)C)n1CCC(F)(F)F [Example 156, 2-[(tert-butylamino)oxy]-N-[(3E)-5-tert-butyl-1-methyl-2-(3,3,3-trifluoropropyl)-1,2-dihydro-3H-pyrazol-3-ylidene]-5-(trifluoromethyl)benzamide] | 68 nM | 10 nM | – | – |
| CCCCn1ccc(C(C)(C)C)c/c1=N\C(=O)c1cc(C(F)(F)F)ccc1ONC(C)(C)C [Example 157, 2-[(tert-butylamino)oxy]-N-[(2E)-1-butyl-4-tert-butylpyridin-2(1H)-ylidene]-5-(trifluoromethyl)benzamide] | – | – | 128 nM | 9.4 nM |
| COCCn1nc(C(C)(C)C)s/c1=N\C(=O)c1cc(C(F)(F)F)ccc1ONC(C)(C)C [Example 158, 2-[(tert-butylamino)oxy]-N-[(2Z)-5-tert-butyl-3-(2-methoxyethyl)-1,3,4-thiadiazol-2(3H)-ylidene]-5-(trifluoromethyl)benzamide] | – | – | 39 nM | 3.6 nM |
| CCCCn1/c(=N/C(=O)c2cc(C(F)(F)F)ccc2ONC(C)C)cc(C(C)(C)C)n1C [Example 159, N-[(3E)-2-butyl-5-tert-butyl-1-methyl-1,2-dihydro-3H-pyrazol-3-ylidene]-2-[(isopropylamino)oxy]-5-(trifluoromethyl)benzamide] | – | – | 16 nM | 5.2 nM |
| CCCCn1cc(C(C)(C)C)cc/c1=N\C(=O)c1cc(C(F)(F)F)ccc1ONC(C)(C)C [Example 160, 2-[(tert-butylamino)oxy]-N-[(2E)-1-butyl-5-tert-butylpyridin-2(1H)-ylidene]-5-(trifluoromethyl)benzamide] | – | – | 88 nM | 5.9 nM |
| Cn1c(C(C)(C)C)c/c(=N\C(=O)c2cc(C#N)ccc2ONC(C)(C)C)n1C[C@H]1CCCO1 [Example 161, 2-[(tert-butylamino)oxy]-N-{(3E)-5-tert-butyl-1-methyl-2-[(2R)-tetrahydrofuran-2-ylmethyl]-1,2-dihydro-3H-pyrazol-3-ylidene}-5-cyanobenzamide] | – | – | 209 nM | 11 nM |
| CCCCn1nc(C(C)(C)C)s/c1=N\C(=O)c1cc(Cl)ccc1ONC(C)(C)C [Example 162, 2-[(tert-butylamino)oxy]-N-[(2Z)-3-butyl-5-tert-butyl-1,3,4-thiadiazol-2(3H)-ylidene]-5-chlorobenzamide] | – | – | 8.5 nM | 0.6 nM |
| CC(C)(C)NOc1ccc(C(F)(F)F)cc1C(=O)/N=c1\sc(C(C)(C)C)nn1CC1CC1 [Example 163, 2-[(tert-butylamino)oxy]-N-[(2Z)-5-tert-butyl-3-(cyclopropylmethyl)-1,3,4-thiadiazol-2(3H)-ylidene]-5-(trifluoromethyl)benzamide] | – | – | 16 nM | 3 nM |
| Cn1c(C(C)(C)C)c/c(=N\C(=O)c2cc(Cl)ccc2ONC(C)(C)C)n1C[C@H]1CCCO1 [Example 168, 2-[(tert-butylamino)oxy]-N-{(3E)-5-tert-butyl-1-methyl-2-[(2R)-tetrahydrofuran-2-ylmethyl]-1,2-dihydro-3H-pyrazol-3-ylidene}-5-chlorobenzamide] | – | – | 52 nM | 21 nM |
| CCCCn1nc(C(C)(C)C)s/c1=N\C(=O)c1cc(C(F)(F)F)ccc1ONC(=O)C(C)(C)C [Example 169, N-[(2Z)-3-butyl-5-tert-butyl-1,3,4-thiadiazol-2(3H)-ylidene]-2-{[(2,2-dimethylpropanoyl)amino]oxy}-5-(trifluoromethyl)benzamide] | – | – | 0.6 nM | 0.6 nM |
| CCCCn1nc(C(C)(C)C)s/c1=N\C(=O)c1ccc(C(F)(F)F)cc1ONC(C)(C)C [Example 170, 2-[(tert-butylamino)oxy]-N-[(2Z)-3-butyl-5-tert-butyl-1,3,4-thiadiazol-2(3H)-ylidene]-4-(trifluoromethyl)benzamide] | – | – | 127 nM | 6.3 nM |
| CCCCn1nc(C(C)(C)C)s/c1=N\C(=O)c1cc(C(F)(F)F)ccc1ON(C)C [Example 171, N-[(2Z)-3-butyl-5-tert-butyl-1,3,4-thiadiazol-2(3H)-ylidene]-2-[(dimethylamino)oxy]-5-(trifluoromethyl)benzamide] | 21 nM | 4.9 nM | – | – |
| CC(C)(C)NOc1ccc(C(F)(F)F)cc1C(=O)/N=c1\sc(C(C)(C)C)nn1CCCCF [Example 174, 2-[(tert-butylamino)oxy]-N-[(2Z)-5-tert-butyl-3-(4-fluorobutyl)-1,3,4-thiadiazol-2(3H)-ylidene]-5-(trifluoromethyl)benzamide] | – | – | 6.2 nM | 1.1 nM |

— patent US8859596B2, “Compounds as cannabinoid receptor ligands” (priority 2008, dated 2014)
